The record followed here is patent US6949545B2, “Heterocyclic side chain containing, n-substituted metalloprotease inhibitors” (The Procter & Gamble Company, priority 2000, dated 2005).

For this assay, the system named is asthma sufferer. Description: Example E: inhalation aerosol for asthma. The class given is in vivo, human. Particulars: 5.0% w/v aerosol, 0.01 mL sprayed into the mouth while inhaling. Here is the method:
An inhalation aerosol composition, according to the present invention, is made comprising: An asthma sufferer sprays 0.01 mL via a pump actuator into the mouth while inhaling.

As for `COc1ccc(-c2ccc(S(=O)(=O)N(C)C(C(=O)O)C3CCN(CCc4ccccc4)CC3)cc2)cc1` (stereo not shown) [Example 17, [(4′-Methoxy-biphenyl-4-sulfonyl)-methyl-amino]-(1-phenethyl-piperidin-4-yl)-acetic Acid], the asthma symptoms entry is “Asthma symptoms are diminished”.
